Series [1] deals with Pam 212 keratinocytes. In words: ATP and ADP release from Pam 212 keratinocytes after skin irritant chemicals (luciferin-luciferase, pyruvate kinase). Conditions: for ATP and ADP levels in culture supernatants: Pam 212 keratinocytes, 10 min incubation; for ATP release from Pam 212 keratinocytes: in vitro treatment, ATP in culture supernatants. The format is cell-based, mouse. The protocol:
(§1) FIGS. 3A, 3B, & 3C. […] (FIG. 3A), Pam 212 keratinocytes were treated with croton oil (CO), benzalkonium chloride (BAC), or ethyl phenylpropiolate (EPP) at the indicated concentrations or exposed to UVB irradiation at the indicated doses. […] (FIG. 3C), Pam 212 keratinocytes and XS52 LC were co-cultured at the indicated cell densities and treated for 10 min with PBS alone or with 0.0015% BAC. All data shown in this figure are representative sets of results (mean±SD, n=3) from three independent experiments. * p<0.05; ** p<0.01 (two-tailed Student's t-test).
As the amount of ATP is directly proportional to the light emitted, quantification of the emitted light provides a measure of the amount of ATP. […] Cellular ATP release is then measured by: obtaining cells growing in culture; replacing the culture medium with a buffer; adding the ATP releasing agent (chemical irritant or a modulator of an NTPDase-mediated immune response); obtaining a sample of the buffer surrounding the cells after allowing sufficient time for ATP release by the cell in response to the irritant or modulator of an NTPDase-mediated immune response; adding luciferin and luciferase to this buffer; and quantitating the light released using a luminometer. A negative control can comprise obtaining the same reading with no cells; and/or obtaining the same reading with no added ATP releasing agent. The data are then analyzed by comparing to the standard ATP curve. Generally the cells in such assays may be grown in a multi-well format.
Additionally, the release of ADP into culture media can be measured by the pyruvate kinase-mediated conversion to ATP. This enzymatic assay utilizes pyruvate kinase (PK) which catalyzes the following reaction: Phospho(enol)pyruvate+ADP→Pyruvate+ATP
(§2) ATP and ADP released by endothelial cells and platelets are known to act as pro-inflammatory mediators in the vascular system.

Series [2] concerns Pam 212 keratinocytes. In words: LDH release from Pam 212 keratinocytes (CytoTox 96 assay kit). Type of series: cell-based, mouse. The protocol: as §1, §2
The conditions of series [3]: mouse, in vivo. An excerpt: (§3) FIGS. 4A, 4B, 4C, 4D, 4E, 4F, 4G, & 4H. Irritant contact hypersensitivity responses in CD39-deficient mice. CD39^−/− mice (circles), CD39^+/− mice (triangles) or CD39^+/+ mice (squares) received topical application of 1% croton oil (FIG. 4A), 10% BAC (FIG. 4B), or 30% EPP (FIG. 4C) on the right ear and vehicle alone on the left ear. […] Statistical significant differences compared to the CD39^+/+ mice or to the CD39^+/− mice are indicated by asterisks or sharps, respectively (*^/# p<0.05 and **^/## p<0.01; two-tailed Student's t test). FIG. 4D, Ear skin samples were harvested from CD39^+/+ or CD39^−/− mice 5 days after topical application of vehicle alone or 1% CO and processed to histological analyses after H&E staining (original magnification: ×250). FIG. 4E, CD39^−/− mice (n=6) or C57BL/6 wild-type mice (n=10) (FIG. 4F) received local injections of apyrase on the right ear (closed circles) or PBS alone on the left ear (open circles) before and after topical application of 1% CO on both ears. The data shown are the mean±SEM of the swelling responses (the ear thickness after CO application minus the baseline thickness before application) at the indicated time points. Statistical significant differences (one-tailed Student's t-test) are indicated by asterisks (*p<0.05 and **p<0.01). […]

Series [4] can be described thus: Inflammatory skin responses to locally administered ATP. Type of series: in vivo, mouse.
Series [5] deals with bone marrow-derived DC. The series is described as follows: ATP-mediated cytolysis of bone marrow-derived DC (cell viability, 7-AAD staining). Type of series: cell-based, mouse. An excerpt: (§4) FIGS. 6A, 6B, & 6C. P2Y receptor desensitization in CD39^−/− DC. […] (FIG. 6C), CD39^−/− or CD39^+/+ DC were pre-treated with apyrase or buffer alone and then examined for ATP-mediated activation responses. Data shown are the means±s.d. (n=3) of cell viability (left), IL-6 production (middle), and LY uptake (right). Statistically, significant differences are indicated by asterisks (** P<0.01).
(§5) Measurement of ATP responsiveness.

The test system of series [6] is bone marrow-derived DC. In words: ATP-induced IL-6 secretion by bone marrow-derived DC (ELISA). The format is cell-based, mouse.
From the text: as §4, §5
In general terms: An ELISA detects its analyte on a solid surface through an enzyme-linked reagent.

Series [7] relates to bone marrow-derived DC. The series is described as follows: ATP-induced pore formation in bone marrow-derived DC (lucifer yellow uptake). As to conditions: 3 mM ATP, 15 min. The format is cell-based, mouse.
From the text: as §4, §5

A short description of series [8]: Local apyrase injection in croton oil-induced ear swelling. The format is in vivo, mouse.
From the text: as §3

The test system of the next series is endothelial cells. As to conditions: soluble apyrase added in the medium; Imai et al., 2000; cited from earlier work.
The next series deals with cytotoxic T-cells. Conditions: cited from earlier work.
Another series relates to IA+ epidermal cells. In words: LC emigration: surface densities of IA+ epidermal cells after local injection of TNFα. The format is in vivo, mouse. Conditions: CD39+/+ mice; local injection 100 ng/animal, 48 hr. The text has this:
FIGS. 5A, 5B, 5C, 5D, 5E, 5F, 5G, & 5H. Attenuated immune responses in CD39-deficient mice. […] The data shown are the means±s.e.m. (n=10) of the swelling responses. […] (FIG. 5C) Mice received local injection of TNFα and examined for surface densities of IA^+ epidermal cells (means±s.d., n=3). At 24 hr after topical application of FITC, the DLN were examined for the numbers of migratory LC (means±s.d., n=3) (FIG. 5D) localization of FITC^+ migratory LC after counter-staining of the B cell areas with PE-conjugated B220 mAb (FIG. 5E), and for the surface phenotype of FITC^+ migratory LC (FIG. 5F). Closed and open histograms represent the staining profiles with the indicated mAb and control IgG, respectively. Numbers in the parentheses indicate the mean fluorescence intensities (MFI). (FIG. 5G), Migratory LC isolated from OX-painted CD39^−/− mice (circles) or CD39^+/+ mice (squares) were co-cultured with OX-reactive, wild-type T-cells. The data shown are the means±s.d. (n=3) of interferon-γ (IFN-γ) concentrations in the culture supernatants (* P<0.05). (FIG. 5H), Bone marrow-derived DC generated from CD39^−/− mice (circles) or CD39^+/+ mice (squares) were pulsed with TNBS and injected into CD39^+/+ mice. […]
Measurement of DC function. […] Maturational states of migratory LC were assessed by the surface expression of CD86 and CD40 by the FITC^+ populations in DLN. […]

Consider five molecules from patent US7067254B2, “Diagnosis and treatment of inflammation and hyperactive immune conditions” (Board of Regents, The University of Texas System, priority 2001, dated 2006).

As to `CCOC(=O)C#Cc1ccccc1` [ethyl phenylpropiolate], in the series with Pam 212 keratinocytes [1], the “ATP and ADP levels in culture supernatants” value is “detected at comparable levels”; the “ATP release from Pam 212 keratinocytes” value was “triggered rapid ATP release in a time- and dose-dependent manner”. The “release of lactate dehydrogenase (LDH)” value in the series with Pam 212 keratinocytes [2] is “caused rapid release of lactate dehydrogenase (LDH)”. Also, the “ear swelling responses in CD39−/− mice compared with CD39+/+ mice” value in [3] is “amplified significantly”.

With benzalkonium chloride, in the series on Pam 212 keratinocytes [1], the “ATP and ADP levels in culture supernatants” value is reported as “detected at comparable levels”; the “ATP release from Pam 212 keratinocytes” value is “triggered rapid ATP release in a time- and dose-dependent manner”. The “release of lactate dehydrogenase (LDH)” value with Pam 212 keratinocytes [2] is recorded as “caused rapid release of lactate dehydrogenase (LDH)”. In [3], the “ear swelling responses in CD39−/− mice compared with CD39+/+ mice” value is on record as “amplified significantly”.

As for `Nc1ncnc2c1ncn2[C@@H]1O[C@H](COP(=O)(O)OP(=O)(O)OP(=O)(O)O)[C@@H](O)[C@H]1O` [ATP, adenosine triphosphate], in [4], the “inflammatory skin responses in CD39−/− mice” value is “markedly elevated inflammatory skin responses”. The “ATP concentration that killed DC significantly” value in the series on bone marrow-derived DC [5] (CD39+/+ DC, 60 min incubation) is 2.5 mM. Besides, in the series with bone marrow-derived DC [5] (CD39−/− DC, 60 min incubation), the “ATP concentration up to which DC were resistant to cytolysis” value was “up to 10 mM”. Besides, the “IL-6 secretion in response to ATP” value in the series on bone marrow-derived DC [6] (CD39+/+ vs CD39−/− DC, 1 mM ATP, 16 hr) is given as “CD39^+/+ DC, but not CD39^−/− DC, secreted IL-6”. For the same molecule, the “ATP-induced pore formation (lucifer yellow uptake) in CD39−/− DC” value with bone marrow-derived DC [7] is reported as “intact nucleotide responsiveness”.

Turning to apyrase, the “effect on early phase ear swelling responses to CO in CD39−/− mice” value in [8] (0.2U/ear s.c. into ear 10 min before and 1 hr after 1% CO painting) is “diminished the extent of early phase responses”. Moreover, the “effect on CO-induced skin inflammation in wild-type C57BL/6 mice” value in series [8] (0.2U/ear s.c. into ear before and 1 hr after 1% CO painting) is given as “further reduced the extent of CO-induced skin inflammation”. For the same molecule, the “effect of apyrase pre-treatment on susceptibility of CD39−/− DC to ATP-mediated cytolysis” value in the series with bone marrow-derived DC [5] (apyrase 5 U/ml, 10 min before 2.5 mM ATP) was “restored their susceptibility to ATP-mediated cytolysis”. Besides, in the series on bone marrow-derived DC [6] (apyrase 5 U/ml, 10 min before 1 mM ATP), the “effect of apyrase pre-treatment on capacity of CD39−/− DC to secrete IL-6 upon ATP stimulation” value is listed as “restored”. The “inhibition of LPS-induced IL-1 secretion” value with endothelial cells is on record as “can be inhibited”. In the series on cytotoxic T-cells, the “effect on cytolytic capacity of cytotoxic T-cells” value is reported as “inhibited partially”.

On to TNFα, for which the “reduction in surface densities of IA+ epidermal cells” value in the series on IA+ epidermal cells was “about 50%”.
